Measurements reported in publication PMC9323955, “Synthesis and Evaluation of Small Molecule Drug Conjugates Harnessing Thioester-Linked Maytansinoids” (Pharmaceutics, 2022).
Entries after “also recorded” stand apart in the source; their conditions may differ.

Legend:
[1] = test system: HCC1806 triple-negative breast cancer cells; experiment: MTS cell viability assay (72 h); type: cell-based, human; details: HCC1806, conjugate vs DM1/DM4
Experimental: HCC1806 cells were grown in RPMI 1640 medium, and MTS assays were performed to check cell viability. Cells (2500–3000 cells/well) were grown in flat-bottomed 96-well plates for 24 h, and then serial dilutions of the compound were added, and cells were allowed to incubate for a further 72 h. At the end of the 72-h incubation period, the medium was removed, and 100 μL of a solution including a mixture of MTS and PMS was added. The cells were incubated for 1.5 h at 37 °C in a humidified incubator with 5% CO2 to allow viable cells to convert tetrazolium salts to formazan. Conversion to formazan was measured by absorbance (490 nm) using a BioTek PowerWave-X absorbance microplate meter. The data collected were normalized using a DMSO-treated control (100% viability) and a background control (0% viability) to verify growth inhibition.

[2] = test system: sorafenib-resistant hepatocellular carcinoma; experiment: Oncogene-induced, sorafenib-resistant HCC mouse model; type: in vivo
Experimental: (§1) Cancer cells suspended in RPMI 1640 medium (11835-030, Thermo Fisher Scientific, Waltham, MA, USA) were mixed with Matrigel™ (356237, BD Biosciences, Franklin Lakes, NJ, USA) in a 1:1 ratio. Human triple-negative breast cancer HCC1806 (1 × 10^6 cells) cells were inoculated subcutaneously into the left flank of 6-week-old female nude mice (BioLASCO Taiwan, Taipei, Taiwan) using a 1 mL syringe with a 24G needle (AN-2425R, Terumo Medical Corp., Tokyo, Japan). Tumor dimensions were measured twice weekly using electronic calipers (FOW54-200-777, PRO-MAX), and the volume of tumor grown subcutaneously (mm^3) was calculated by the formula Volume = (length × width^2)/2. A combination of 10% DMA/20% Cremophor EL/70% 5% dextrose injection (D5W) was formulated to treat HCC1806 xenograft tumors. Mice with HCC1806 tumors were grouped and administered the indicated dosing regimen of 1 mg/kg for the conjugate and 0.3 mg/kg for the cytotoxic payloads DM1 and DM4 twice-weekly (day 1 and day 4) for 2 weeks when the mean tumor volume was approximately 200–250 mm^3 or 850–900 mm^3 (large tumors). The conjugate dose of 2 mg/kg was administered weekly for the large tumor study. The body weight and tumor volume of mice were measured twice weekly. In addition, a previously reported oncogene-induced, sorafenib-resistant HCC mouse model was used in the current study to examine the antitumor activities of synthesized compounds. Briefly, plasmids including transposase (pCMV(CAT)T7-SB100), human Akt1, and luciferase (pKT2/CLP-AKT-2A-OVA-HBc-HBs-LUC) and the N-Ras V12 mutant (pT/Caggs-NRASV12) were hydrodynamically injected (HDI) and the liver was monitored for the appearance of HCC. HCC mice with a total flux of more than 1 × 10^9 photons/s from IVIS imaging were used as treatment conjugates. The indicated conjugate was administered intravenously at 1 mg/kg 3 times per week over 2 weeks. IVIS imaging was repeatedly performed to follow tumor progression, and tumor tissue from treated HCC mice was collected for histological examination and RNA extraction after administration.
Paraffin-embedded liver/tumor tissue sections were de-paraffined, re-hydrated, and then subjected to heat-induced antigen retrieval, followed by incubation with primary Abs. The primary antibodies used to detect Ki-67 and CD8α were SP6 (Abcam, Cambridge, UK) and D4W2Z (Cell Signaling Technology, Danvers, MA, USA), respectively. ImmPRESS anti-rat Ig, ImmPRESS anti-rabbit Ig, polymer detection kit, DAB peroxidase substrate kit (Vector laboratories, Burlingame, CA, USA), and liquid permanent red substrate (Dako, Glostrup, Denmark) and Hematoxylin Gill II (Leica, Wetzlar, Germany) were used for detection and visualization. Images were taken by NHRI’s Pathology Core Laboratory using an automated digital slide scanner Pannoramic MIDI with a Plan-Apochromat 20×/0.8 objective (3D HISTECH, Budapest, Hungary).
Total RNA was extracted from conjugate-treated or vehicle-treated HCC mouse tumor tissue using the RNA-easy kit (QIAGEN, Hilden, Germany). The concentration (absorbance at 260 nm) and purity (A260/280 and A260/230 ratios) of the extracted RNA was measured spectrophotometrically; RNA integrity was further determined using the 2100 Bioanalyzer System (Agilent RNA was further determined for RNA integrity using a 2100 Bioanalyzer System (Agilent Technologies, Santa Clara, CA, USA). RNA was hybridized to the barcode probe provided in the nCounter Mouse Pan-Cancer Immunoassay Kit (NanoString Technologies, Seattle, WA, USA) and then used to measure mRNA expression of 770 genes associated with the immune response. Nanostring nSolver 4.0 and nCounter Advanced Analysis 2.0 software (NanoString Technologies) was used for data processing, immune cell analysis, and pathway scoring according to the developer’s instructions.

[3] = test system: HCC1806 human triple-negative breast cancer tumors; experiment: HCC1806 xenograft tumor efficacy; type: in vivo, female nude mice
Experimental: as §1

[4] = Nanostring mRNA analysis vs vehicle
[5] = Nanostring pathway scoring vs vehicle

COc1cc2cc(c1Cl)N(C)C(=O)CC(OC(=O)C(C)N(C)C(=O)CCSC(=O)c1ccc(CN(CCOCCOCCNC(=O)c3ccc(CN(CCCCOc4cc(CN(Cc5ccccn5)Cc5ccccn5)cc(CN(Cc5ccccn5)Cc5ccccn5)c4)C(=O)C4(c5ccc(Cl)cc5)CCCCC4)cc3)C(=O)C3(c4ccc(Cl)cc4)CCCCC3)cc1)C1(C)OC1C(C)C1CC(O)(NC(=O)O1)C(OC)C=CC=C(C)C2.O=[N+]([O-])[O-].O=[N+]([O-])[O-].O=[N+]([O-])[O-].O=[N+]([O-])[O-].[Zn+2].[Zn+2] (stereo not shown) [Zn8_DM1]
fold attenuation in cytotoxicity relative to parent payload [1]: 2.5–6 fold | anti-HCC tumor growth (flux of luciferase activity) ([2]; 1 mg/kg i.v. 3 times a week for 2 weeks): potent anti-HCC tumor growth | CD8+ T-cell infiltration in tumors ([2]; CD8α immunohistochemistry): significant increase | CXCL9 gene expression in tumor tissue [2, 4]: significant upregulation | PD-L1 gene expression in tumor tissue [2, 4]: elevated PD-L1 gene expression | STAT1 gene expression in tumor tissue [2, 4]: elevated | NK cell function score in TME [2, 5]: significant improvement | T-cell function score in TME [2, 5]: significant improvement | interferon score in TME [2, 5]: significant improvement | Ki-67 staining of tumor samples ([2]; immunohistochemistry, treated tumor): marked reduction in Ki-67 staining | liver tumor burden vs vehicle ([2]; livers harvested a week post last dose): less tumor burden | anti-HCC1806 tumor growth activity ([3]; 1 mg/kg i.v. twice weekly for 2 weeks, tumors 200–250 mm^3): significant activities; also recorded: shrinkage of HCC1806 tumor growth | effect on large HCC1806 tumors ([3]; 2 mg/kg per week for two weeks, tumors ~900 mm^3): could readily arrest or shrink the growth of larger tumors
